From patent US9333280B2, “Stabilized enzyme compositions” (Teleflex Medical Incorporated, priority 2009, dated 2016)

Tested on: Staphylococcus aureus ATCC 33591
Assay: Adherence of bacteria on catheter segments
Type: cell-based
Conditions: against the tested organisms
Experimental: In addition to fibrinolytic activity, antimicrobial activity of the 1% LMW-DexS (8 kDa) treated catheters was evaluated. In this test, adherence of gram positive bacteria Staphylococcus aureus ATCC 33591, on the catheter segments having immobilized enzyme uPA stabilized with 1% LMW-DexS (8 kDa), along with the antimicrobial agents such as gentian violet (0.6%) and chlorhexidine dodecanoate was compared to similarly treated catheter segments but without the LMW-DexS (8 kDa) stabilized enzyme.

## CCCCCCCCCCCC(=O)O.NC(=NCCCCCCN=C(N)N=C(N)Nc1ccc(Cl)cc1)N=C(N)Nc1ccc(Cl)cc1 [chlorhexidine dodecanoate]
  antimicrobial activity after attachment of LMW-DexS (8 kDa) stabilized urokinase: not compromised

## CN(C)c1ccc(C(=C2C=CC(=[N+](C)C)C=C2)c2ccc(N(C)C)cc2)cc1 [gentian violet]
  antimicrobial activity after attachment of LMW-DexS (8 kDa) stabilized urokinase: not compromised
